Consider 41 compounds from patent US9428456B2, “1-[m-carboxamido(hetero)aryl-methyl]-heterocyclyl-carboxamide derivatives” (Actelion Pharmaceuticals Ltd., priority 2012, dated 2016).

Sequence of CXCR7 (P25106 whole entry): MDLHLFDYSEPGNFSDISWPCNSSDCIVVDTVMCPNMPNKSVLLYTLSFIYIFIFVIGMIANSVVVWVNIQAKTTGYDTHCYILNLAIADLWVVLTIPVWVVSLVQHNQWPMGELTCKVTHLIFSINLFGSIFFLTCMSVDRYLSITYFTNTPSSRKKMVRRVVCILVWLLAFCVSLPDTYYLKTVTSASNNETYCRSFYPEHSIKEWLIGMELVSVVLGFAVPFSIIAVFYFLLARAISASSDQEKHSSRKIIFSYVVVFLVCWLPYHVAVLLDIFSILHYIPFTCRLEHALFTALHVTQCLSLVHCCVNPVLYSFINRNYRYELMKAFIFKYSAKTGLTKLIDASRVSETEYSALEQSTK
Sequence of CXCR7 (P32121 whole entry partner): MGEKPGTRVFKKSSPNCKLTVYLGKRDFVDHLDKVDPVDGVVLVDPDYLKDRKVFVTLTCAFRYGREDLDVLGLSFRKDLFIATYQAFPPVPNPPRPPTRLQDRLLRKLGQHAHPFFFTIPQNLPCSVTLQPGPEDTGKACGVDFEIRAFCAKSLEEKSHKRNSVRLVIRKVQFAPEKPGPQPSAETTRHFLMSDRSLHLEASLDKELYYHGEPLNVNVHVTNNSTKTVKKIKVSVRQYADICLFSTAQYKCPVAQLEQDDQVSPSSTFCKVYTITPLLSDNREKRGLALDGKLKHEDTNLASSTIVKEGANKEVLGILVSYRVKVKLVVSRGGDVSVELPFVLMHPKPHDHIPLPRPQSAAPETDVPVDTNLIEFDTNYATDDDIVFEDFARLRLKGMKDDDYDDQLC

This assay addresses CXCR7 (Homo sapiens (Human), UniProt P25106). Kind of assay: PathHunter CHO-K1 CXCR7 b-arrestin assay (agonistic activity). Format: cell-based. As to conditions: PathHunter CHO-K1 CXCR7 b-arrestin cell line. How it is done:
The CXCl12 receptor and CXCR7 agonistic activities of the compounds of formula (I) are determined in accordance with the following experimental method.
The assay is using the PathHunter™ CHO-K1 CXCR7 b-arrestin cell line from DiscoverX. The system is based on the Enzyme Fragment Complementation Technology. Two complementing fragments of the b-galactosidase enzyme are expressed within stably transfected cells. The larger portion of b-gal, termed EA for Enzyme Acceptor, is fused to the C-terminus of b-arrestin 2. The smaller fragment, termed ProLink™ tag, is fused to CXCR7 at the C-terminus. Upon activation, b-arrestin is recruited which forces the interaction of ProLink and EA, allowing complementation of the two fragments of b-gal and the formation of a functional enzyme which is capable of hydrolysing the substrate and generating a chemiluminescent signal.
CHO-K1 CXCR7 b-arrestin cells are detached from culture dishes with a cell dissociation buffer (Invitrogen, #13151-014) and collected in growing medium (F12 HAMS 90% (v/v)/FCS 10% (v/v), Penicilin/streptomycin 1% (v/v)). 5000 cells per well (in 20 μl) are seeded in a 384 well plate (white-walled, clear bottom; BD Falcon #353274). The plate is incubated at 37° C./5% CO2 for 24 hours. Medium is then replaced by 20 μl OPTIMEM (Invitrogen #31985) for 3 to 4 hours. Test compounds are dissolved at 10 mM in DMSO and serially diluted in DMSO to 200× of the final concentration for dose response curves. Compounds are then diluted 1:33.3 in HBSS1×. 5 μl/well of HBSS1×/20 mM HEPES/0.2% BSA are added to the assay plate followed by addition of 5 μl/well of diluted compounds. CXCL12 (Peprotech #300-28A) may be used as a reference agonist. The plate is incubated for 90 minutes at 37° C. 12 μl of detection reagent (Path Hunter Detection Kit, DiscoveRx, #93-0001) is transferred to the assay plate and to the plate is incubated for 1 hour at room temperature. Luminescent signal is read in a microplate reader (FLUOstar Optima, bmg). The calculated EC50 values may fluctuate depending on the daily cellular assay performance. Fluctuations of this kind are known to those skilled in the art. Average EC50 values from several measurements are given as geometric mean values.
`Cc1cncc(C(=O)Nc2cccc(CN3CCCC(C(=O)NC(C)C)CC3)c2)c1` (racemic) [Example 1.289] registered an EC50 of 113 nM. On to `Cc1cncc(C(=O)Nc2cccc(CN3CCCC(C(=O)NC(C)(C)C)CC3)c2)c1` (racemic) [Example 1.290], for which the concentration for a half-maximal effect (EC50) is 49 nM.

`Cc1cncc(C(=O)Nc2cccc(CN3CCCC(C(=O)NC4CCCCC4)CC3)c2)c1` (racemic) [Example 1.291] returned an EC50 of 134 nM. `CCC(c1cccc(NC(=O)c2cncc(C)c2)c1)N1CCC(C(=O)NC2CCCCC2)CC1` (racemic) [Example 1.307] came in with an EC50 of 350 nM. Regarding `CCC(c1cccc(NC(=O)c2cccc(C(F)(F)F)n2)c1)N1CCC(C(=O)NC2CCCCC2)CC1` (racemic) [Example 1.308], the EC50 was 87 nM. As to `Cc1cncc(C(=O)Nc2cccc(CN3CCC(C(=O)NC(C)(C)C)C3)c2)c1` (racemic) [Example 2.096, rac-N-[3-(3-tert-Butylcarbamoyl-pyrrolidin-1-ylmethyl)-phenyl]-5-methyl-nicotinamide], a half-maximal effect (EC50) was put at 28 nM. As for `CC(C)(C)NC(=O)C1CCN(Cc2cccc(NC(=O)Cc3ccc(F)cc3Cl)c2)C1` (racemic) [Example 2.097, rac-1-{3-[2-(2-Chloro-4-fluoro-phenyl)-acetylamino]-benzyl}-pyrrolidine-3-carboxylic acid tert-butylamide], the EC50 came to 37 nM.

Take `CC(C)CNC(=O)C1CCN(Cc2cccc(NC(=O)c3cccc(C(F)(F)F)n3)c2)C1` (racemic) [Example 2.098, rac-6-Trifluoromethyl-pyridine-2-carboxylic acid [3-(3-isobutylcarbamoyl-pyrrolidin-1-ylmethyl)-phenyl]-amide]: the midpoint of the response, the EC50, lay at 193 nM. The compound `O=C(Nc1cccc(CN2CCC(C(=O)NC3CCCCC3)C2)c1)c1cccc(C(F)(F)F)n1` (racemic) [Example 2.099, rac-6-Trifluoromethyl-pyridine-2-carboxylic acid [3-(3-cyclohexylcarbamoyl-pyrrolidin-1-ylmethyl)-phenyl]-amide] returned an EC50 of 60 nM. For `O=C(Cc1ccc(F)cc1Cl)Nc1cccc(CN2CCC(C(=O)NC3CCCCC3)C2)c1` (racemic) [Example 2.100, rac-1-{3-[2-(2-Chloro-4-fluoro-phenyl)-acetylamino]-benzyl}-pyrrolidine-3-carboxylic acid cyclohexylamide], a half-maximal effect (EC50) was put at 161 nM. As for `C[C@H]1C[C@@H](C(=O)NC(C)(C)C)CCN1Cc1cccc(NC(=O)c2cccc(C(F)(F)F)n2)c1` (racemic) [Example 2.102, rac-6-Trifluoromethyl-pyridine-2-carboxylic acid [3-((2S*,4S*)-4-tert-butylcarbamoyl-2-methyl-piperidin-1-ylmethyl)-phenyl]-amide], the figure is 4 nM; as for `Cc1cncc(C(=O)Nc2cccc(CN3CC[C@H](C(=O)NC(C)(C)C)C[C@@H]3C)c2)c1` (racemic) [Example 2.103, rac-N-[3-((2S*,4S*)-4-tert-Butylcarbamoyl-2-methyl-piperidin-1-ylmethyl)-phenyl]-5-methyl-nicotinamide], 17 nM. As to `Cc1cncc(C(=O)Nc2cccc(CN3CC[C@H](C(=O)NC4CCCCC4)C[C@@H]3C)c2)c1` (racemic) [Example 2.104, rac-N-[3-((2S*,4S*)-4-Cyclohexylcarbamoyl-2-methyl-piperidin-1-ylmethyl)-phenyl]-5-methyl-nicotinamide], a half-maximal response (EC50) required 4 nM. The compound `Cc1sc(C(=O)Nc2cccc(CN3CCC(C(=O)NC4CCCCC4)CC3)c2)cc1CC(C)C` [Example 1.004] showed a 50% effective concentration (EC50) of 40 nM.

Compound `Cc1cc(C(=O)Nc2cccc(CN3CCC(C(=O)NC4CCCCC4)CC3)c2)no1` [Example 1.005] yielded an EC50 of 18 nM. Consider `O=C(Nc1cccc(CN2CCC(C(=O)NC3CCCCC3)CC2)c1)c1ccncn1` [Example 1.006], for which the EC50 stood at 2 nM. The compound `O=C(Nc1cccc(CN2CCC(C(=O)NC3CCCCC3)CC2)c1)c1ccc2ccccc2c1` [Example 1.007] had an EC50 of 6 nM.

For `O=C(Nc1cccc(CN2CCC(C(=O)NC3CCCCC3)CC2)c1)c1n[nH]c2ccccc12` [Example 1.008], a half-maximal effect (EC50) was put at 35 nM. The compound `COc1ccccc1C(=O)Nc1cccc(CN2CCC(C(=O)NC3CCCCC3)CC2)c1` [Example 1.009] showed an EC50 of 17 nM.

As for `O=C(Nc1cccc(CN2CCC(C(=O)NC3CCCCC3)CC2)c1)c1cccc2ccncc12` [Example 1.010], the EC50 was found to be 68 nM. The compound `O=C(Cc1ccccc1)Nc1cccc(CN2CCC(C(=O)NC3CCCCC3)CC2)c1` [Example 1.011] came in with an EC50 of 7 nM. Under `O=C(Nc1cccc(CN2CCC(C(=O)NC3CCCCC3)CC2)c1)c1ccsc1` [Example 1.012] stands 4 nM; under `O=C(Cc1ccccn1)Nc1cccc(CN2CCC(C(=O)NC3CCCCC3)CC2)c1` [Example 1.013], 20 nM; under `O=C(Nc1cccc(CN2CCC(C(=O)NC3CCCCC3)CC2)c1)c1ccccc1` [Example 1.014], 3 nM. `O=C(Cc1ccc2ccccc2c1)Nc1cccc(CN2CCC(C(=O)NC3CCCCC3)CC2)c1` [Example 1.015] came in with an EC50 of 78 nM. The compound `CC(C)C(=O)Nc1cccc(CN2CCC(C(=O)NC3CCCCC3)CC2)c1` [Example 1.016] registered an EC50 of 121 nM. For `O=C(Nc1cccc(CN2CCC(C(=O)NC3CCCCC3)CC2)c1)C1CCCC1` [Example 1.017], the EC50 was found to be 29 nM. As for `O=C(Nc1cccc(CN2CCC(C(=O)NC3CCCCC3)CC2)c1)c1cc(F)cc(F)c1` [Example 1.019], the EC50 was determined as 2 nM. For `CC(C)(C)CC(=O)Nc1cccc(CN2CCC(C(=O)NC3CCCCC3)CC2)c1` [Example 1.020], the EC50 came to 25 nM. The compound `O=C(Nc1cccc(CN2CCC(C(=O)NC3CCCCC3)CC2)c1)c1nccc2ccccc12` [Example 1.021] returned an EC50 of 39 nM.

In turn, `O=C(Nc1cccc(CN2CCC(C(=O)NC3CCCCC3)CC2)c1)c1cncc2ccccc12` [Example 1.022] displayed an EC50 of 97 nM. As for `COc1cccc(C(=O)Nc2cccc(CN3CCC(C(=O)NC4CCCCC4)CC3)c2)c1` [Example 1.023], the figure is 4 nM. `O=C(Cc1cccc(Cl)c1)Nc1cccc(CN2CCC(C(=O)NC3CCCCC3)CC2)c1` [Example 1.024]: a half-maximal effect (EC50) was put at 10 nM. As for `O=C(Cc1ccccc1Cl)Nc1cccc(CN2CCC(C(=O)NC3CCCCC3)CC2)c1` [Example 1.025], the figure is 3 nM. In turn, `Cn1cc(C(=O)Nc2cccc(CN3CCC(C(=O)NC4CCCCC4)CC3)c2)c2ccccc21` [Example 1.026] registered an EC50 of 182 nM. For the compound `O=C(Nc1cccc(CN2CCC(C(=O)NC3CCCCC3)CC2)c1)c1c[nH]c2ccccc12` [Example 1.027], the EC50 amounted to 42 nM.

Compound `O=C(Nc1cccc(CN2CCC(C(=O)NC3CCCCC3)CC2)c1)c1coc2ccccc12` [Example 1.028] registered an EC50 of 4 nM. For `Cn1cc(CC(=O)Nc2cccc(CN3CCC(C(=O)NC4CCCCC4)CC3)c2)c2ccccc21` [Example 1.030], the EC50 came to 18 nM. `COc1ccc(C(=O)Nc2cccc(CN3CCC(C(=O)NC4CCCCC4)CC3)c2)cc1` [Example 1.031] gave a concentration for a half-maximal effect (EC50) of 2 nM. As for `CC(C)(C)c1ccc(C(=O)Nc2cccc(CN3CCC(C(=O)NC4CCCCC4)CC3)c2)cc1` [Example 1.032], the figure is 34 nM; as for `O=C(Nc1cccc(CN2CCC(C(=O)NC3CCCCC3)CC2)c1)c1cccc(Cl)c1` [Example 1.033], 2 nM.
